Drawing on patent US9271962B2 (NORTHEASTERN UNIVERSITY, priority 2008, dated 2016), this text covers inhibition and IC50 for 18 compounds.

Like-named read-outs stand apart in the source and are kept apart here.

By inhibition is commonly meant the relative decrease from the control value, in per cent. Broadly, the IC50 is the midpoint of a concentration-inhibition curve.

For one assay, the target named is T1, hMGL (Homo sapiens, UniProt Q99685).
T1 construct: A full-length cDNA clone of the human MGL transcript variant 1; made in house; host or cells: E. coli BL21 (DE3)
T1 sequence (Q99685 2-303 limits assumed): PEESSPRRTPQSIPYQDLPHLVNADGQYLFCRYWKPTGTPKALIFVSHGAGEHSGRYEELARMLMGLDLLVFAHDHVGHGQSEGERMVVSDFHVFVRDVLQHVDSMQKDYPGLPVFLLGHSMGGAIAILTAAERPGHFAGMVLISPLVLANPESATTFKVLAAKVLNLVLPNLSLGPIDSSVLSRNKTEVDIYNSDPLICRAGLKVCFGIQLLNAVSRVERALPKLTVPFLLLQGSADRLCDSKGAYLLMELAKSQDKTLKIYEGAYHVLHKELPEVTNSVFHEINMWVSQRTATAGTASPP
Put plainly: Fluorescent enzyme assay, MGL (AHMMCE hydrolysis). In kind it is biochemical. The settings on record: for inhibition at 1 µM: 1000 nM inhibitor; for inhibition at 0.01 µM: read-out: % Inhibition of Enzyme by inhibitor, MGL, 10 nM; for inhibition at 100 µM: 100 uM inhibitor, printed in the 1000 nM column. The method, then: (§1) Some analogs were tested for their FAAH/MGL inhibitory activity, which is expressed as % of inhibition (Tables 2, 3, and 4 below). The percentage of inhibition results from three-point assay (three concentrations of inhibitor are used) and it is less accurate (preliminary screening) than the IC50/Ki values that are determined from eight-point assay (eight different concentrations of inhibitor were used). The percentage of inhibition describes the percentage by which the inhibitor reduces the velocity/rate of AAMCA (arachidonoyl-7-amino-4-methylcoumarin amide) or AHMMCE (arachidonoyl-7-hydroxy-6-methoxy-4-methylcoumarin ester) hydrolysis by FAAH or MGL respectively. The IC50 is the concentration of the inhibitor, which results in 50% inhibition of the velocity/rate of AAMCA (arachidonoyl 7-amino-4-methylcoumarin amide) hydrolysis by FAAH or AHMMCE (Arachidonoyl, 7-hydroxy-6-methoxy-4-methylcoumarin ester) hydrolysis by MGL. The Ki value is the affinity constant and describes the ability of the compounds to inhibit the function of FAAH or MGL. The lower the IC50/Ki values, the higher the affinity of the inhibitor for the enzyme and the higher its inhibitory activity. A detailed description of the methods used to test inhibitory activity of compounds is given below.
A full-length cDNA clone of the human MGL transcript variant 1 (gi: 51242951) was obtained from OriGene Technologies (Rockville, Md.). The coding part of the MGL sequence (except the translation initiation codon ATG) was amplified by a polymerase chain reaction (PCR) using forward […] and reverse […] primers containing PmlI and SacI restriction enzyme recognition sites, respectively. iProof high-fidelity DNA polymerase (Bio-Rad, Hercules, Calif.) was used in the PCR amplification with 33 cycles, each consisting of denaturation at 94° C. for 10 s, annealing at 55° C. for 33 s, and extension at 72° C. for 1 min. The PCR product and pET45b vector were digested with PmlI and SacI restriction enzymes, and the vector was dephosphorylated with CIP followed by in-gel purification using the MinElute Gel Extraction Kit (Qiagen Corp., Valencia, Calif.). The fragment was inserted into the vector directly downstream after the 6 histidine and valine codons, generating the construct pET45His6hMGL for expression of hMGL containing an N-terminal His6-tag. GC10 E. coli cells were used for DNA transformation and plasmid propagation. Mini- and midi-scale plasmid DNA preparations were performed using a GenElute Plasmid Miniprep Kit (Sigma) and PureYield Plasmid Midiprep System (Promega, Madison, Wis.), respectively. In-frame vector-fragment junctions and the coding sequence of the recombinant gene were confirmed by sequencing. The pET45His6hMGL construct was transformed into BL21 (DE3) and Origami (DE3) E. coli expression strains (Novagen, Madison, Wis.).
A single E. coli BL21 (DE3) colony containing the pET45His6hMGL plasmid was inoculated into 12 mL of Luria broth-ampicillin medium and grown overnight with shaking (250 rpm) at 37° C. The next morning, 10 mL of this culture was inoculated into 1 L of fresh Luria broth-ampicillin and allowed to grow until culture turbidity reached an (OD)600 of 0.6-0.8, at which time expression from the T7 promoter was induced by adding isopropyl-β-D-thio-galactopyranoside (1 mM). After 5 h induction, the cells were harvested by centrifugation at 5,000 g for 10 min at 4° C., washed with PBS, and held at −80° C. Five grams (wet-weight) of cells were resuspended in 50 mL lysis buffer (100 mM NaCl; 50 mM Tris, pH 8.0) supplemented with Triton X-100 (0.5%), lysozyme (0.2 mg/mL), and DNase I (25 μg/ml) and disrupted on ice by three, one-min sonication cycles, each consisting of 1-sec sonication bursts at 50 W power separated from each other by a 2-sec interval (Vibra-Cell 500 W, Sonics, Newtown, Conn.). The cell lysate was centrifuged at 10,000 g for 30 min at 4° C. […]

Another assay addresses T2, ΔTM rFAAH (Rattus norvegicus, UniProt P97612).
T2 construct: 15 ug of ΔTM rFAAH (cell lysate obtained by recombinant procedure); made in house
T2 sequence (P97612 30-579 limits assumed): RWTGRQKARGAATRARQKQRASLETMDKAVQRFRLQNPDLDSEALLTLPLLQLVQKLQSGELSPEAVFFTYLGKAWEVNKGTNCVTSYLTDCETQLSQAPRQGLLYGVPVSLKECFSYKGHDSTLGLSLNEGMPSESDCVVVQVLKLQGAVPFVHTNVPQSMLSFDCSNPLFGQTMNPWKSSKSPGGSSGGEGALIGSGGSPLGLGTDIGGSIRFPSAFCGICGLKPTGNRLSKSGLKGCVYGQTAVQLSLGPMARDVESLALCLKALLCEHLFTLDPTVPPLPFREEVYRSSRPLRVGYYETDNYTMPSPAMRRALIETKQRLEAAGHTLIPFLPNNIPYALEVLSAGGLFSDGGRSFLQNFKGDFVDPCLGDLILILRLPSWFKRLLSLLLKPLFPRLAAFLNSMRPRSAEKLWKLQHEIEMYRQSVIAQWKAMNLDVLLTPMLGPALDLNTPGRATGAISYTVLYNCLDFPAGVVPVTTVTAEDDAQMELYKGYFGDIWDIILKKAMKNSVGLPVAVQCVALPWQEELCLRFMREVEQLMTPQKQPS
Briefly: Fluorescent enzyme assay, FAAH (AAMCA hydrolysis). To be noted: for inhibition at 1 µM: 1000 nM inhibitor; for inhibition at 1 µM / inhibition at 0.01 µM / IC50: AAMCA substrate; for inhibition at 1 µM / inhibition at 0.01 µM: screening assay; for inhibition at 0.01 µM: 10 nM inhibitor; for IC50: eight-point dose response; for inhibition at 100 µM: 100 uM inhibitor, printed in the 1000 nM column. The format is biochemical. The method, then:
as §1
The enzyme (FAAH and MGL) assays were performed in 96 well plates (Coster #3650) in a total volume of 200 uL. Fluorogenic substrate AAMCA (arachidonoyl 7-amino-4-methylcoumarin amide) for FAAH and AHMMCE (arachidonoyl 7-hydroxy-6-methoxy-4-methylcoumarin ester) for MGL were used using BioTek Synergy HT Microplate Reader. Compounds and substrates were dissolved in DMSO provide a 10 mM stock solution and kept as a stock solution at −20° C. until used for assay. Stock solutions were thawed and reconstituted in 50:50 DMSO/assay buffer to a final DMSO concentration per well below 8%. This ensures that the compounds and substrate are in solution during assay. […] Appropriate substrate was added to adjust the final concentration in each well to 20 uM for FAAH (2× Km) and 10 uM for MGL (1×KM). Fluorescence readings were performed at λex=360/λem=460 for 4 h using Kinetic assay protocol at every 20 min (the fluorescent product coumarin produced is quantitated by this procedure). The readings at 3 h for FAAH and 2 h for MGL (linear maximum hydrolysis kinetics of enzyme on substrate) were used to calculate percent inhibition based on controls. Compounds which had more than 50 percent inhibition at 10 uM were selected for dose response study to determine IC50 values. The dose response at 8 concentration points was performed as with the screening assay except that compounds were serially diluted to 8 concentration points which were chosen based on IC50 value, which were calculated from the screening assay results. Assays are run twice in triplicates and Graphpad Prism software is used to plot inhibition data to obtain IC50 values.

[1] abbreviates: AHMMCE substrate, screening assay.
Where [2] appears, read: 10 nM inhibitor, AHMMCE substrate, screening assay.

Turning to `CN(C)C(=O)N1CC(C(C)(C)C)OC1=O` (stereo not drawn) [Compound 31, 5-tert-butyl-N,N-dimethyl-2-oxooxazolidine-3-carboxamide], the values for the inhibition at 1 µM on hMGL (setting [1]) and at ΔTM rFAAH were 66% and 63%, respectively.

As to `CN(C)C(=O)N1CC(Cc2ccccc2)OC1=O` (stereo not drawn) [Compound 32, 5-benzyl-N,N-dimethyl-2-oxooxazolidine-3-carboxamide], the values for the inhibition at 1 µM against hMGL (setting [1]) and at ΔTM rFAAH were 3% and 5%, respectively.

For `CN(C)C(=O)n1cnc(-c2ccccc2)c1` [Compound 33, N,N-dimethyl-4-phenyl-1H-imidazole-1-carboxamide], the inhibition at 1 µM against hMGL (setting [1]) came out at 6%; on ΔTM rFAAH, 88%.

Take `CN(C)C(=O)n1nnc(Cc2ccccc2)n1` [Compound 34, 5-benzyl-N,N-dimethyl-2H-tetrazole-2-carboxamide]: the inhibition at 0.01 µM worked out at 100% on hMGL (setting [2]) and 91% at ΔTM rFAAH.

With `CN(C)C(=O)n1nnnc1Cc1ccccc1` [Compound 35, 5-benzyl-N,N-dimethyl-1H-tetrazole-1-carboxamide], the inhibition at 0.01 µM on hMGL (setting [2]) was found to be 41%; on ΔTM rFAAH it was 81%.

For the compound `CN(C)C(=O)Oc1ccc(Cc2nnn(C(=O)N(C)C)n2)cc1` [Compound 36a, 4((2-(dimethylcarbamoyl)-2H-tetrazol-5-yl)methyl)phenyl dimethylcarbamate], the inhibition at 0.01 µM on hMGL stood at 92%; on ΔTM rFAAH it was 80%.

`CN(C)C(=O)Oc1ccc(Cc2nnnn2C(=O)N(C)C)cc1` [Compound 36b, 4-((1-(dimethylcarbamoyl)-1H-tetrazol-5-yl)methyl)phenyl dimethylcarbamate]: the inhibition at 0.01 µM on hMGL amounted to 98%; at ΔTM rFAAH, 82%.

On to `CN(C)C(=O)n1nnc(Cc2ccncc2)n1` [Compound 39, N,N-dimethyl-5-(pyridin-4-ylmethyl)-2H-tetrazole-2-carboxamide], for which the values for the inhibition at 1 µM against hMGL (setting [1]) and on ΔTM rFAAH were 40% and 21%, respectively.

On to `CN(C)C(=O)n1nnc(Cc2ccc(-c3ccncc3)cc2)n1` [Compound 44, N,N-dimethyl-5-(4-(pyridin-4-yl)benzyl)-2H-tetrazole-2-carboxamide], for which the inhibition at 1 µM against hMGL (setting [1]) is 10%; on ΔTM rFAAH, 12%.

As for `CN(CCCCCl)C(=O)n1cnc(-c2ccccc2)c1` [Compound 47, N-(4-chlorobutyl)-N-methyl-4-phenyl-1H-imidazole-1-carboxamide], at 1 µM the inhibition at hMGL (setting [1]) was 15%. Besides, on ΔTM rFAAH, the inhibition at 0.01 µM came to 12%, the inhibition at 1 µM was determined as 90% and the IC50 was found to be 78 nM.

Regarding `CN(CCCCN=[N+]=[N-])C(=O)n1cnc(-c2ccccc2)c1` [Compound 48, N-(4-azidobutyl)-N-methyl-4-phenyl-1H-imidazole-1-carboxamide], the inhibition at 1 µM against hMGL (setting [1]) was determined as 14%. Moreover, on ΔTM rFAAH, the inhibition at 0.01 µM amounted to 8% and the inhibition at 1 µM came out at 90%.

`CN(CCCCN=C=S)C(=O)n1cnc(-c2ccccc2)c1` [Compound 49, N-(4-isothiocyanatobutyl)-N-methyl-4-phenyl-1H-imidazole-1-carboxamide] came in with an inhibition at 1 µM on hMGL (setting [1]) of 7%. Moreover, on ΔTM rFAAH, the inhibition at 0.01 µM worked out at 25%, the inhibition at 1 µM was found to be 90% and the concentration for half-maximal inhibition (IC50) was determined as 42 nM.

Regarding `CN(C)C(=O)n1nnc(Cc2cccc3ccccc23)n1` [Compound 50, N,N-dimethyl-5-(naphthalen-1-ylmethyl)-2H-tetrazole-2-carboxamide], the values for the inhibition at 100 µM against hMGL and on ΔTM rFAAH were 42% and 85%, respectively.

Compound `CN(C)C(=O)n1nnc(Cc2ccc3ccccc3c2)n1` [Compound 51] showed an inhibition at 100 µM against hMGL of 26%. Further, the inhibition at 1 µM on ΔTM rFAAH worked out at 30%.

On to `CN(CCCCCl)C(=O)n1cnc(-c2ccccc2)n1` [Compound 53, N-(4-chlorobutyl)-N-methyl-3-phenyl-1H-1,2,4-triazole-1-carboxamide], for which the inhibition at 0.01 µM on hMGL (setting [2]) came out at 13%. The inhibition at 1 µM on hMGL (setting [1]) is 71%; on ΔTM rFAAH, 100%.

Take `CN(C)C(=O)n1cnc2nc(OCc3ccccc3)ncc21` [Compound 59, 2-(benzyloxy)-N,N-dimethyl-7H-purine-7-carboxamide]: the inhibition at 100 µM against hMGL turned out to be 86%; on ΔTM rFAAH, 10%.

Regarding `CN(C)C(=O)n1cnc2ncncc21` [Compound 60, N,N-dimethyl-7H-purine-7-carboxamide], the inhibition at 1 µM against hMGL (setting [1]) was 86%; on ΔTM rFAAH, 96%.

`CN(C)C(=O)n1cnc2cncnc21` [Compound 61, N,N-dimethyl-9H-purine-9-carboxamide]: the inhibition at 1 µM on hMGL (setting [1]) and at ΔTM rFAAH was 87% in each case.
